Data: article PMC10427817, “Bioactivities of β-mangostin and its new glycoside derivatives synthesized by enzymatic reactions” (Royal Society Open Science, 2023)
Converted amounts (≈) assume the structure as drawn. Read-outs that look alike come from different tables or passages of the source.

Assays:
Escherichia coli = assay: Anti-microbial activity assay, E. coli; format: cell-based
Experimental: (§1) Bacterial and fungal strains (Bacillus subtilis, Staphylococcus aureus, Lactobacillus fermentum, Escherichia coli, Pseudomonas aeruginosa, Salmonella enterica and Candida albicans) were activated on TSA (Tryptic Soy Agar) and SA (Sabouraud–4% dextrose agar) media, respectively. Before the experiment, the microbial strains were grown in the corresponding liquid media at a concentration of approximately 5 × 10^5 CFU ml^−1 for bacteria and 1 × 10^3 CFU ml^−1 for fungi. The microbial suspension (190 µl) was mixed with 10 µl of the test sample, which was serially diluted twofold, and the microplate was incubated at 37°C for 16–24 h.

[1] = tested on: S. aureus (MRSA; methicillin-resistant strain); design: method as in PMID 22494050; conditions: cited from earlier work
KB epidermal carcinoma = assay: MTT cytotoxicity assay, KB; format: cell-based, human; conditions: Homo sapiens, KB cell line, 72 h, mean ± s.d., three replicates
Experimental: (§2) The cytotoxic activities against the cancer cell lines KB epidermal carcinoma, A549 lung cancer, HepG2 liver cancer and MCF-7 breast cancer, as well as the healthy cell line HEK293 embryonic kidney cells, were determined using the 3-(4,5-dimethylthiazol-2-yl)-2,5-diphenyltetrazolium bromide (MTT) assay. Briefly, cell lines were grown into log phase at 37°C, 5% CO2 in DMEM-Dulbecco's modified Eagle's medium and 10% fetal bovine serum. A concentration of 1 × 10^4–3 × 10^4 cells ml^−1 was prepared depending on the cell line used for the experiment by adding 10 µl of the sample and 190 µl of the cell suspension, followed by incubation under standard conditions. After 72 h of culture, 10 µl of MTT (5 mg ml^−1) was added and incubated for 4 h. Dimethyl sulfoxide (100 µl) was added to dissolve formazan crystals and the density was measured at 540 nm using a BioTek spectrophotometer. The inhibition of cell growth was expressed as IC50 (the half-maximal inhibitory concentration) value.

Bacillus subtilis = assay: Anti-microbial activity assay, B. subtilis; format: cell-based; conditions: B. subtilis
Experimental: as §1

Candida albicans = assay: Anti-microbial activity assay, C. albicans; format: cell-based
Experimental: as §1

Salmonella enterica = assay: Anti-microbial activity assay, S. enterica; format: cell-based
Experimental: as §1

[2] = tested on: hepatocellular carcinoma cell lines (Huh-7, SK-Hep-1, HA22T/VGH cell lines); conditions: cited from earlier work
U251 cells = tested on: U251 cells; design: method as in PMID 34896543; conditions: U251 glioma cells; read-out: IC50, cell survival; cited from earlier work
α-glucosidase = conditions: ref 44; read-out: IC50, α-glucosidase inhibitory activity; cited from earlier work
Lactobacillus fermentum = assay: Anti-microbial activity assay, L. fermentum; format: cell-based; conditions: L. fermentum
Experimental: as §1

Pseudomonas aeruginosa = assay: Anti-microbial activity assay, P. aeruginosa; format: cell-based
Experimental: as §1

MCF-7 breast cancer = assay: MTT cytotoxicity assay, MCF-7; format: cell-based, human; conditions: Homo sapiens, MCF7, MCF-7 cell line, 72 h, mean ± s.d., three replicates
Experimental: as §2

[3] = tested on: HEK293 embryonic kidney cells; assay: MTT cytotoxicity assay, HEK293; format: cell-based, human; conditions: Homo sapiens, HEK293 healthy cell line, 72 h, mean ± s.d., three replicates
Experimental: as §2, with “value. Ellipticine was used as reference.” for “value.”

[4] = tested on: Enterococcus (VRE; vancomycin-resistant strain); design: method as in PMID 22494050; conditions: cited from earlier work
AChE = AChE (Homo sapiens, UniProt P22303); assay: Acetylcholinesterase inhibitory activity assay; format: biochemical; conditions: AChE 0.25 IU ml^−1, ATCI/DTNB, mean ± s.d., three replicates
Experimental: For the assay, acetylthiocholine iodide (ATCI) was used as a substrate for the reaction and 5,5′-dithiobis-(2-nitrobenzoic acid) (DTNB) was used to measure AChE activity. The reaction (200 µl) on a 96-well plate was performed by mixing Tris–Cl buffer (pH 8.0), tested sample in a twofold serial dilution, AChE (0.25 IU ml^−1) and incubating at 25°C, 15 min before adding 2.4 mM DTNB and 2.4 mM ATCI.

[5] = tested on: HeLa cervical cancer cells; design: method as in PMID 26781450; conditions: cited from earlier work
Staphylococcus aureus = assay: Anti-microbial activity assay, S. aureus; format: cell-based; conditions: S. aureus
Experimental: as §1

HeLa and SiHa cells = conditions: cited from earlier work
T89G cells = tested on: T89G cells; design: method as in PMID 34896543; conditions: T89G glioma cells; read-out: IC50, cell survival; cited from earlier work
A549 lung cancer = assay: MTT cytotoxicity assay, A549; format: cell-based, human; conditions: Homo sapiens; A549 cell line, MTT, 72 h, mean ± s.d., three replicates; read-out: IC50
Experimental: as §2, with “value. Ellipticine was used as reference.” for “value.”

C6 cells = tested on: C6 cells; design: method as in PMID 34896543; conditions: C6 glioma cells; read-out: IC50, cell survival; cited from earlier work

Chain of AChE (P22303 32-614): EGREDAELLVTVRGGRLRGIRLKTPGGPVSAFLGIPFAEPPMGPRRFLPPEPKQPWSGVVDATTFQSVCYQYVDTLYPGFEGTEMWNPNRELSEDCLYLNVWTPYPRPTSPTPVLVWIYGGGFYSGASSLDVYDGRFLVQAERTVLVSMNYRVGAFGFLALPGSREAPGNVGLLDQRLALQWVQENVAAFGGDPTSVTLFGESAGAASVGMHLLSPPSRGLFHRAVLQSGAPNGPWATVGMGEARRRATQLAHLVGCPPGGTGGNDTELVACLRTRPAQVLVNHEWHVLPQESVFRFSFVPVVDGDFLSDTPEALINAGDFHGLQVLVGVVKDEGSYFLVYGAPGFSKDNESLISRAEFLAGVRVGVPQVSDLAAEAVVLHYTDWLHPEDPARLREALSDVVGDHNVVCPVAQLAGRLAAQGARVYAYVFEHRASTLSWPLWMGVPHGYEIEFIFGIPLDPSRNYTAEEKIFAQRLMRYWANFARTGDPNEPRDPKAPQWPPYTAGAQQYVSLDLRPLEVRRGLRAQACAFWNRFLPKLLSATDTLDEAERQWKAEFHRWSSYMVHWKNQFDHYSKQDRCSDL

SMILES: COc1cc2oc3cc(O)c(OC)c(CC=C(C)C)c3c(=O)c2c(O)c1CC=C(C)C [β-mangostin]
- MIC (Escherichia coli): greater than 32 μg ml^−1
- IC50 (Escherichia coli; Escherichia coli): > 32 µg/mL
- MIC (Escherichia coli; Escherichia coli, read-out: MIC): > 32 µg/mL
- MIC [1]: > 200 µg/mL
- IC50 (KB epidermal carcinoma): 21.1 ± 9.9 µM
- IC50 (Bacillus subtilis; read-out: IC50): 0.16 ± 0.01 µg/mL (≈ 0.377 µM)
- MIC (Bacillus subtilis; read-out: MIC): 0.5 µg/mL (≈ 1.18 µM)
- MIC (Candida albicans): greater than 32 μg ml^−1
- IC50 (Candida albicans; Candida albicans, read-out: IC50): > 32 µg/mL
- MIC (Candida albicans; Candida albicans, read-out: MIC): > 32 µg/mL
- IC50 (Salmonella enterica): > 32 µg/mL
- MIC (Salmonella enterica): > 32 µg/mL
- cytotoxicity or cell cycle suppression [2]: did not cause cytotoxicity or cell cycle suppression
- IC50 (U251 cells): 5.8 µM
- IC50 (α-glucosidase): 14.4 µM
- IC50 (Lactobacillus fermentum; read-out: IC50): 0.18 ± 0.01 µg/mL (≈ 0.424 µM)
- MIC (Lactobacillus fermentum; read-out: MIC): 0.5 µg/mL (≈ 1.18 µM)
- MIC (Pseudomonas aeruginosa): greater than 32 μg ml^−1
- IC50 (Pseudomonas aeruginosa; Pseudomonas aeruginosa): > 32 µg/mL
- MIC (Pseudomonas aeruginosa; Pseudomonas aeruginosa, read-out: MIC): > 32 µg/mL
- IC50 (MCF-7 breast cancer): 18 ± 8.1 µM
- IC50 [3]: 15.6 ± 6.5 µM
- MIC [4]: > 200 µg/mL
- IC50 (AChE): 2.17 ± 0.18 µM
- IC50 [5]: 27.2 µM
- IC50 (Staphylococcus aureus; read-out: IC50): 1.24 ± 0.05 µg/mL (≈ 2.92 µM)
- MIC (Staphylococcus aureus; read-out: MIC): > 32 µg/mL
- cytotoxicity or cell cycle suppression (HeLa and SiHa cells): did not cause cytotoxicity or cell cycle suppression
- IC50 (T89G cells): 10.3 µM
- IC50 (A549 lung cancer): 15.4 ± 5.1 µM
- IC50 (C6 cells): 4.8 µM
